What was measured:
[1] = system: barnyardgrass (Echinochloa crus-galli); assay: Test C pre-/postemergence: barnyardgrass; type: in vivo; conditions: scale 0 to 100, 0 no effect, 100 complete control
Barnyardgrass [2] = assay: Test C postemergence: barnyardgrass; type: in vivo, Echinochloa crus-galli; conditions: 125 g ai/ha, scale 0 to 100, 0 no effect, 100 complete control
Oilseed Rape [3] = assay: Test C pre-/postemergence: oilseed rape; type: in vivo
Description: Seeds of plant species selected from blackgrass (Alopecurus myosuroides), bromegrass, downy (downy bromegrass, Bromus tectorum), foxtail, green (green foxtail, Setaria viridis), ryegrass, Italian (Italian ryegrass, Lolium multiflorum), winter wheat (Triticum aestivum), wild oat (Avena fatua), galium (catchweed bedstraw, Galium aparine), bermudagrass (Cynodon dactylon), surinam grass (Brachiaria decumbens), cocklebur (common cocklebur, Xanthium strumarium), corn (Zea mays), large crabgrass (Digitaria sanguinalis), woolly cupgrass (Eriochloa villosa), foxtail, giant (giant foxtail, Setaria faberii), goosegrass (Eleusine indica), johnsongrass (Sorghum halepense), kochia (Kochia scoparia), lambsquarters (Chenopodium album), morningglory (Ipomoea coccinea), nightshade (eastern black nightshade, Solanum ptycanthum), nutsedge, yellow (yellow nutsedge, Cyperus esculentus), pigweed (Amaranthus retroflexus), ragweed (common ragweed, Ambrosia elation), soybean (Glycine max), common (oilseed) sunflower (Helianthus annuus), Russian thistle (Salsola kali) and velvetleaf (Abutilon theophrasti) were planted into a blend of loam soil and sand and treated preemergence with test chemicals formulated in a non-phytotoxic solvent mixture which included a surfactant.
(§1) At the same time, plants selected from these crop and weed species and also barley (winter barley, Hordeum vulgare), canarygrass (Phalaris minor), chickweed (common chickweed, Stellaria media) windgrass (Apera spica-venti) and deadnettle (henbit deadnettle, Lamium amplexicaule) were planted in pots containing Redi-Earth® planting medium (Scotts Company, 14111 Scottslawn Road, Marysville, Ohio 43041) comprising spaghnum peat moss, vermiculite, wetting agent and starter nutrients and treated with postemergence applications of test chemicals formulated in the same manner. Plants ranged in height from 2 to 18 cm (1- to 4-leaf stage) for postemergence treatments.
(§2) Treated plants and controls were maintained in a greenhouse for 13 to 15 days, after which time all species were compared to controls and visually evaluated. Plant response ratings, summarized in Table C, are based on a scale of 0 to 100 where 0 is no effect and 100 is complete control. A dash (-) response means no test result.

Oilseed Rape [4] = assay: Test C preemergence: oilseed rape; type: in vivo, Brassica napus; conditions: 125 g ai/ha, scale 0 to 100, 0 no effect, 100 complete control
Barnyardgrass [5] = assay: Test C postemergence: barnyardgrass; type: in vivo, Echinochloa crus-galli
Summary of the method: (§3)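 Visual 0–100 injury score vs untreated controls (0 none, 100 complete control), taken 13–15 d after treatment. Postemergence spray on potted plants, 2–18 cm, 1–4 leaves; greenhouse.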

Oilseed Rape [6] = assay: Test C preemergence: oilseed rape; type: in vivo; conditions: scale of 0 to 100, 0 is no effect, 100 is complete control
Waterhemp [7] = assay: Test C postemergence: waterhemp; type: in vivo; conditions: scale 0 to 100 (0 no effect, 100 complete control)
Summary of the method: as §3

Waterhemp [8] = assay: Test C postemergence: waterhemp; type: in vivo, Amaranthus rudis
Oilseed Rape [9] = assay: Test C postemergence: oilseed rape; type: in vivo; conditions: scale 0 to 100 (0 no effect, 100 complete control)
Description: as §1, §2

[10] = 31 g ai/ha, scale 0 to 100 (0 no effect, 100 complete control)
[11] = 62 g ai/ha, scale 0 to 100 (0 no effect, 100 complete control)
[12] = 125 g ai/ha, scale 0 to 100, 0 no effect, 100 complete control
[13] = Postemergence, 31 g ai/ha, scale 0 to 100 (0 no effect, 100 complete control)
[14] = Preemergence, 250 g ai/ha, scale 0 to 100, 0 no effect, 100 complete control
[15] = 250 g ai/ha, scale 0 to 100 (0 no effect, 100 complete control)

SMILES: FCc1nn(-c2ccc(F)cc2)nc1Oc1ccnc(C(F)(F)F)c1 [Compound 160]
- Plant response rating, Barnyardgrass ([1]; Postemergence, 16 g ai/ha): 15
- Plant response rating, Barnyardgrass (Barnyardgrass [2]): 35
- Plant response rating, Oilseed Rape (Oilseed Rape [3]; Postemergence, 16 g ai/ha, scale 0 to 100, 0 no effect, 100 complete control): 85
- Plant response rating, Oilseed Rape (Oilseed Rape [4]): 80
- Plant response rating, Barnyardgrass (Barnyardgrass [5]; [10]): 20
- Plant response rating, Barnyardgrass (Barnyardgrass [5]; [11]): 30
- Plant response rating, Oilseed Rape (Oilseed Rape [6]; 31 g ai/ha): 5
- Plant response rating, Oilseed Rape (Oilseed Rape [6]; 62 g ai/ha): 80
- Plant response rating, Waterhemp (Waterhemp [7]; 31 g ai/ha): 95
- Plant response rating, Waterhemp (Waterhemp [7]; 62 g ai/ha): 98
- Plant response rating, Waterhemp (Waterhemp [8]; [12]): 98
- Plant response rating, Oilseed Rape (Oilseed Rape [9]; 31 g ai/ha): 95
- Plant response rating, Oilseed Rape (Oilseed Rape [9]; 62 g ai/ha): 95

SMILES: CCCc1nn(-c2ccc(F)cc2)nc1Oc1ccnc(C(F)(F)F)c1 [Compound 168]
- Plant response rating, Barnyardgrass ([1]; Preemergence, 250 g ai/ha): 100
- Plant response rating, Barnyardgrass (Barnyardgrass [2]): 90
- Plant response rating, Oilseed Rape (Oilseed Rape [3]; [13]): 40
- Plant response rating, Oilseed Rape (Oilseed Rape [3]; [14]): 100
- Plant response rating, Oilseed Rape (Oilseed Rape [4]): 100
- Plant response rating, Barnyardgrass (Barnyardgrass [5]; [10]): 40
- Plant response rating, Barnyardgrass (Barnyardgrass [5]; [11]): 75
- Plant response rating, Barnyardgrass (Barnyardgrass [5]; 250 g ai/ha, scale 0 to 100): 95
- Plant response rating, Oilseed Rape (Oilseed Rape [6]; 62 g ai/ha): 100
- Plant response rating, Waterhemp (Waterhemp [7]; 62 g ai/ha): 90
- Plant response rating, Waterhemp (Waterhemp [8]; [12]): 95
- Plant response rating, Waterhemp (Waterhemp [8]; [15]): 95
- Plant response rating, Oilseed Rape (Oilseed Rape [9]; 62 g ai/ha): 70

SMILES: CCc1nn(-c2ccc(C(F)(F)F)cc2)nc1Oc1ccnc(C(F)(F)F)c1 [Compound 169]
- Plant response rating, Barnyardgrass ([1]; Preemergence, 250 g ai/ha): 100
- Plant response rating, Barnyardgrass (Barnyardgrass [2]): 75
- Plant response rating, Oilseed Rape (Oilseed Rape [3]; [13]): 30
- Plant response rating, Oilseed Rape (Oilseed Rape [3]; [14]): 100
- Plant response rating, Oilseed Rape (Oilseed Rape [4]): 100
- Plant response rating, Barnyardgrass (Barnyardgrass [5]; [10]): 15
- Plant response rating, Barnyardgrass (Barnyardgrass [5]; [11]): 25
- Plant response rating, Barnyardgrass (Barnyardgrass [5]; 250 g ai/ha, scale 0 to 100): 85
- Plant response rating, Oilseed Rape (Oilseed Rape [6]; 62 g ai/ha): 98
- Plant response rating, Waterhemp (Waterhemp [7]; 62 g ai/ha): 80
- Plant response rating, Waterhemp (Waterhemp [8]; [12]): 80
- Plant response rating, Waterhemp (Waterhemp [8]; [15]): 95
- Plant response rating, Oilseed Rape (Oilseed Rape [9]; 62 g ai/ha): 40

SMILES: CCCc1nn(-c2ccc(C(F)(F)F)cc2)nc1Oc1ccnc(C(F)(F)F)c1 [Compound 170]
- Plant response rating, Barnyardgrass ([1]; Preemergence, 250 g ai/ha): 100
- Plant response rating, Barnyardgrass (Barnyardgrass [2]): 85
- Plant response rating, Oilseed Rape (Oilseed Rape [3]; [13]): 30
- Plant response rating, Oilseed Rape (Oilseed Rape [3]; [14]): 100
- Plant response rating, Oilseed Rape (Oilseed Rape [4]): 100
- Plant response rating, Barnyardgrass (Barnyardgrass [5]; [10]): 20
- Plant response rating, Barnyardgrass (Barnyardgrass [5]; [11]): 55
- Plant response rating, Barnyardgrass (Barnyardgrass [5]; 250 g ai/ha, scale 0 to 100): 95
- Plant response rating, Oilseed Rape (Oilseed Rape [6]; 62 g ai/ha): 95
- Plant response rating, Waterhemp (Waterhemp [7]; 62 g ai/ha): 98
- Plant response rating, Waterhemp (Waterhemp [8]; [12]): 98
- Plant response rating, Waterhemp (Waterhemp [8]; [15]): 100
- Plant response rating, Oilseed Rape (Oilseed Rape [9]; 62 g ai/ha): 50

SMILES: CCc1nn(-c2ccc(F)c(F)c2)nc1Oc1ccnc(C(F)(F)F)c1 [Compound 171]
- Plant response rating, Barnyardgrass ([1]; Preemergence, 250 g ai/ha): 98
- Plant response rating, Barnyardgrass (Barnyardgrass [2]): 60
- Plant response rating, Oilseed Rape (Oilseed Rape [3]; [13]): 5
- Plant response rating, Oilseed Rape (Oilseed Rape [3]; [14]): 90
- Plant response rating, Oilseed Rape (Oilseed Rape [4]): 50
- Plant response rating, Barnyardgrass (Barnyardgrass [5]; [10]): 10
- Plant response rating, Barnyardgrass (Barnyardgrass [5]; [11]): 15
- Plant response rating, Barnyardgrass (Barnyardgrass [5]; 250 g ai/ha, scale 0 to 100): 75
- Plant response rating, Oilseed Rape (Oilseed Rape [6]; 62 g ai/ha): 50
- Plant response rating, Waterhemp (Waterhemp [7]; 62 g ai/ha): 75
- Plant response rating, Waterhemp (Waterhemp [8]; [12]): 75
- Plant response rating, Waterhemp (Waterhemp [8]; [15]): 98
- Plant response rating, Oilseed Rape (Oilseed Rape [9]; 62 g ai/ha): 20

SMILES: CCCc1nn(-c2ccc(F)c(F)c2)nc1Oc1ccnc(C(F)(F)F)c1 [Compound 172]
- Plant response rating, Barnyardgrass ([1]; Preemergence, 250 g ai/ha): 100
- Plant response rating, Barnyardgrass (Barnyardgrass [2]): 85
- Plant response rating, Oilseed Rape (Oilseed Rape [3]; [13]): 50
- Plant response rating, Oilseed Rape (Oilseed Rape [3]; [14]): 100
- Plant response rating, Oilseed Rape (Oilseed Rape [4]): 98
- Plant response rating, Barnyardgrass (Barnyardgrass [5]; [10]): 40
- Plant response rating, Barnyardgrass (Barnyardgrass [5]; [11]): 45
- Plant response rating, Barnyardgrass (Barnyardgrass [5]; 250 g ai/ha, scale 0 to 100): 90
- Plant response rating, Oilseed Rape (Oilseed Rape [6]; 62 g ai/ha): 90
- Plant response rating, Waterhemp (Waterhemp [7]; 62 g ai/ha): 95
- Plant response rating, Waterhemp (Waterhemp [8]; [12]): 98
- Plant response rating, Waterhemp (Waterhemp [8]; [15]): 98
- Plant response rating, Oilseed Rape (Oilseed Rape [9]; 62 g ai/ha): 90

SMILES: CCCc1nn(-c2ccc(F)cc2F)nc1Oc1ccnc(C(F)(F)F)c1 [Compound 179]
- Plant response rating, Barnyardgrass ([1]; Preemergence, 250 g ai/ha): 100
- Plant response rating, Barnyardgrass (Barnyardgrass [2]): 65
- Plant response rating, Oilseed Rape (Oilseed Rape [3]; [13]): 30
- Plant response rating, Oilseed Rape (Oilseed Rape [3]; [14]): 100
- Plant response rating, Oilseed Rape (Oilseed Rape [4]): 100
- Plant response rating, Barnyardgrass (Barnyardgrass [5]; [10]): 40
- Plant response rating, Barnyardgrass (Barnyardgrass [5]; [11]): 45
- Plant response rating, Barnyardgrass (Barnyardgrass [5]; 250 g ai/ha, scale 0 to 100): 75
- Plant response rating, Oilseed Rape (Oilseed Rape [6]; 62 g ai/ha): 98
- Plant response rating, Waterhemp (Waterhemp [7]; 62 g ai/ha): 90
- Plant response rating, Waterhemp (Waterhemp [8]; [12]): 95
- Plant response rating, Waterhemp (Waterhemp [8]; [15]): 95
- Plant response rating, Oilseed Rape (Oilseed Rape [9]; 62 g ai/ha): 40

SMILES: CCc1nn(-c2ccc(C(F)(F)F)c(F)c2)nc1Oc1ccnc(C(F)(F)F)c1 [Compound 183]
- Plant response rating, Barnyardgrass ([1]; Preemergence, 250 g ai/ha): 100
- Plant response rating, Barnyardgrass (Barnyardgrass [2]): 80
- Plant response rating, Oilseed Rape (Oilseed Rape [3]; [13]): 20
- Plant response rating, Oilseed Rape (Oilseed Rape [3]; [14]): 100
- Plant response rating, Oilseed Rape (Oilseed Rape [4]): 100
- Plant response rating, Barnyardgrass (Barnyardgrass [5]; [10]): 15
- Plant response rating, Barnyardgrass (Barnyardgrass [5]; [11]): 35
- Plant response rating, Barnyardgrass (Barnyardgrass [5]; 250 g ai/ha, scale 0 to 100): 85
- Plant response rating, Oilseed Rape (Oilseed Rape [6]; 62 g ai/ha): 80
- Plant response rating, Waterhemp (Waterhemp [7]; 62 g ai/ha): 100
- Plant response rating, Waterhemp (Waterhemp [8]; [12]): 100
- Plant response rating, Waterhemp (Waterhemp [8]; [15]): 100
- Plant response rating, Oilseed Rape (Oilseed Rape [9]; 62 g ai/ha): 25

SMILES: CCOc1nn(-c2ccc(Cl)cc2)nc1Cc1ccnc(C(F)(F)F)c1 [Compound 188]
- Plant response rating, Barnyardgrass ([1]; Preemergence, 250 g ai/ha): 100
- Plant response rating, Barnyardgrass (Barnyardgrass [2]): 98
- Plant response rating, Oilseed Rape (Oilseed Rape [3]; [13]): 40
- Plant response rating, Oilseed Rape (Oilseed Rape [3]; [14]): 100
- Plant response rating, Oilseed Rape (Oilseed Rape [4]): 100
- Plant response rating, Barnyardgrass (Barnyardgrass [5]; [10]): 75
- Plant response rating, Barnyardgrass (Barnyardgrass [5]; [11]): 95
- Plant response rating, Barnyardgrass (Barnyardgrass [5]; 250 g ai/ha, scale 0 to 100): 100
- Plant response rating, Oilseed Rape (Oilseed Rape [6]; 62 g ai/ha): 70
- Plant response rating, Waterhemp (Waterhemp [7]; 62 g ai/ha): 100
- Plant response rating, Waterhemp (Waterhemp [8]; [12]): 100
- Plant response rating, Waterhemp (Waterhemp [8]; [15]): 100
- Plant response rating, Oilseed Rape (Oilseed Rape [9]; 62 g ai/ha): 90

From patent US9302999B2, “Substituted triazoles as herbicides” (E. I. DU PONT DE NEMOURS AND COMPANY, priority 2012, dated 2016)
